According to patent US11739101B2, “Bifunctional degraders of hematopoietic progenitor kinase and therapeutic uses thereof” (Nurix Therapeutics, Inc., priority 2020, dated 2023):

target: T1, HPK1 (Homo sapiens, UniProt Q92918); assay: HPK1 Cellular HiBiT Degradation Assay; format: cell-based; conditions: HiBiT-tagged HPK1 Jurkat cells, 24 hours, 10 uM to 0.1 nM; Dmax = 100 minus lowest % HPK1 remaining vs DMSO vehicle
T1 construct: A HiBiT tag was introduced by CRISPR on the N terminus of HPK1 in Jurkat cells; host or cells: Jurkat (ATCC TIB-152), monoclonal CRISPR HiBiT knock-in line
Procedure: HiBiT HPK1 Jurkat cell lines were used to evaluate the total protein levels of HPK1 in a robust human cellular high throughput format. The level of HPK1 remaining following treatment with HPK1 CTMs is reported as Dmax (maximum degradation) achieved at 24 hours when compared to vehicle treated controls. […] These decreases were not a result of cytotoxicity measured by a parallel viability assessment (CTG). See also Table 1.
A HiBiT tag was introduced by CRISPR on the N terminus of HPK1 in Jurkat cells (ATCC® TIB-152) to allow quantitation of HPK1 protein levels in a monoclonal human cell line. Cells were plated at 1×10^6 cells/mL, 30 uL/well (3×10^4 cells/well) in complete RPMI 1640 (10% heat inactivated FBS, 1% L-glutamine) in 384-well assay plates (Corning, cat. no. 3570). HPK1 chimeric targeting molecules (CTMs) were added in an 11-point dilution series (3.16-fold) with a final assay concentration range of 10 uM to 0.1 nM. The parental Jurkat cell line, with no HiBiT insertion, was included in the assay as a background control. Cells treated with a DMSO vehicle control were used to determine the maximum signal defining 100% HPK1 in the cell. Cells were incubated for 24 hours at 37° C./5% CO2. Following incubation, 30 uL of complete Nano-Glo HiBiT Lytic Detection Reagent (Promega cat. no. N3040) was added. Cells were incubated for 10 minutes at room temperature and luminescence was read on an EnVision plate reader (Perkin Elmer, 0.1 sec per well). Parallel plates were assessed for viability using Cell Titer Glo (Promega) and read on an EnVision plate reader to ensure results were not the effect of cytotoxicity. Percent HPK1 remaining per sample was calculated as follows: […]
% HPK1 remaining values were plotted as a function of compound concentration and curves were fit using the Prism (GraphPad) equation “log(inhibitor) vs response−Variable slope (four parameters)”. Dmax values were calculated by identifying the lowest % remaining and subtracting from 100. Dmax values are provided in Table 1, wherein A>65%, 45%≤B≤65% and C<45%.

T1 sequence (Q92918 whole entry): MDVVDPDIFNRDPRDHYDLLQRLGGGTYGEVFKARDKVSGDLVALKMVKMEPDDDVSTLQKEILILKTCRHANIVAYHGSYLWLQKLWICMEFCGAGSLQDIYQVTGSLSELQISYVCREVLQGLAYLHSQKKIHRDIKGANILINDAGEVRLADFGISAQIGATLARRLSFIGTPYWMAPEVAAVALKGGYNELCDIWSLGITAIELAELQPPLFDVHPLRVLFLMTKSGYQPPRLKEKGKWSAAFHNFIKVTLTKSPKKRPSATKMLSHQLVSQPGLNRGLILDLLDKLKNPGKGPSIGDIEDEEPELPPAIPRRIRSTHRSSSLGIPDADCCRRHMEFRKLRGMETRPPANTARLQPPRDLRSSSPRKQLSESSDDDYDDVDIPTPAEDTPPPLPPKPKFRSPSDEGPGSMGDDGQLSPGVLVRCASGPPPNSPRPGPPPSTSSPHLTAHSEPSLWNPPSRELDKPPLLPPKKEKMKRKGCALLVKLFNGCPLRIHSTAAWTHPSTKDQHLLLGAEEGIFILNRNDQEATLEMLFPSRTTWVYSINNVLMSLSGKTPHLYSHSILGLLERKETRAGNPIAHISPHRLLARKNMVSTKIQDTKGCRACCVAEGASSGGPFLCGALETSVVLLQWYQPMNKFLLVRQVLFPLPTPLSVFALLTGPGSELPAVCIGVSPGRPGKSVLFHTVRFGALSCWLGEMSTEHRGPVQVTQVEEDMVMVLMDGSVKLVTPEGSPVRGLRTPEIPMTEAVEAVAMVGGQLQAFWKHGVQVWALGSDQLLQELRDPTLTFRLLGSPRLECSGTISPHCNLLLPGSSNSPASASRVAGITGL

**Q.** With `Cc1cc(F)c(Nc2nc(-c3ccc4c(c3)N([C@H]3C[C@@H](N5CCCCC5)C3)C(=O)C43CCN(C(=O)C4CCN(C(=O)C[C@@H]5CCCN(c6cccc7c6C(=O)N(C6CCC(=O)NC6=O)C7=O)C5)C4)CC3)cc3ncn(C(C)C)c23)cc1C(=O)NC(C)C` (stereo partly drawn) [Example 32, 5-({6-[1′-(1-{2-[(3S)-1-{2-[2,6-dioxopiperidin-3-yl]-1,3-dioxo-2,3-dihydro-1H-isoindol-4-yl}piperidin-3-yl]acetyl}pyrrolidine-3-carbonyl)-2-oxo-1-[(1s,3s)-3-(piperidin-1-yl)cyclobutyl]-1,2-dihydrospiro[indole-3,4′-piperidin]-6-yl]-3-(propan-2-yl)-3H-imidazo[4,5-c]pyridin-4-yl}amino)-4-fluoro-2-methyl-N-(propan-2-yl)benzamide] as the compound, how does the Dmax read?
**A.** < 45%

**Q.** For `Cc1cc(F)c(Nc2nc(-c3ccc4c(c3)N([C@H]3C[C@@H](N5CCCCC5)C3)C(=O)C43CCN(C(=O)C[C@H]4CCN(C(=O)[C@H]5CC[C@H](Nc6cccc7c6C(=O)N(C6CCC(=O)NC6=O)C7=O)CC5)C4)CC3)cc3ncn(C(C)C)c23)cc1C(=O)NC(C)C` (stereo partly drawn) [Example 57, 4-fluoro-2-methyl-5-{[6-(2-oxo-1′-{2-[(3R)-1-[(1R,4R)-4-({2-[2,6-dioxopiperidin-3-yl]-1,3-dioxo-2,3-dihydro-1H-isoindol-4-yl}amino)cyclohexanecarbonyl]pyrrolidin-3-yl]acetyl}-1-[(1s,3s)-3-(piperidin-1-yl)cyclobutyl]-1,2-dihydrospiro[indole-3,4′-piperidin]-6-yl)-3-(propan-2-yl)-3H-imidazo[4,5-c]pyridin-4-yl]amino}-N-(propan-2-yl)benzamide], which Dmax is on record?
**A.** < 45%

**Q.** Which Dmax does the source give for `Cc1cc(F)c(Nc2nc(-c3ccc4c(c3)N([C@H]3C[C@@H](N5CCCCC5)C3)C(=O)C43CCN(C(=O)[C@H]4CC[C@@H](C(=O)N5CCC(Nc6cccc7c6C(=O)N(C6CCC(=O)NC6=O)C7=O)CC5)CC4)CC3)cc3ncn(C(C)C)c23)cc1C(=O)NC(C)C` (stereo partly drawn) [Example 50, 4-fluoro-2-methyl-5-[(6-{2-oxo-1-[(1s,3s)-3-(piperidin-1-yl)cyclobutyl]-1′-[(1S,4s)-4-[4-({2-[2,6-dioxopiperidin-3-yl]-1,3-dioxo-2,3-dihydro-1H-isoindol-4-yl}amino)piperidine-1-carbonyl]cyclohexanecarbonyl]-1,2-dihydrospiro[indole-3,4′-piperidin]-6-yl}-3-(propan-2-yl)-3H-imidazo[4,5-c]pyridin-4-yl)amino]-N-(propan-2-yl)benzamide] here?
**A.** 45 to 65%

**Q.** For `Cc1cc(F)c(Nc2nc(-c3ccc4c(c3)N([C@H]3C[C@@H](N5CCCCC5)C3)C(=O)C43CCN(C(=O)CN4CCN(c5ccc6c(c5)C(=O)N(C5CCC(=O)NC5=O)C6=O)CC4)CC3)cc3ncn(C(C)C)c23)cc1C(=O)NC(C)C` (mixture of isomers) [Example 23, 5-[(6-{1′-[2-(4-{2-[(3RS)-2,6-dioxopiperidin-3-yl]-1,3-dioxo-2,3-dihydro-1H-isoindol-5-yl}piperazin-1-yl)acetyl]-2-oxo-1-[(1s,3s)-3-(piperidin-1-yl)cyclobutyl]-1,2-dihydrospiro[indole-3,4′-piperidin]-6-yl}-3-(propan-2-yl)-3H-imidazo[4,5-c]pyridin-4-yl)amino]-4-fluoro-2-methyl-N-(propan-2-yl)benzamide], which Dmax is on record?
**A.** < 45%

**Q.** Which Dmax does the source give for `Cc1cc(F)c(Nc2nc(-c3ccc4c(c3)N([C@H]3C[C@@H](N5CCCCC5)C3)C(=O)C43CCN(C(=O)c4ccc(CC5CCN(c6cccc7c6C(=O)N(C6CCC(=O)NC6=O)C7=O)CC5)cc4)CC3)cc3ncn(C(C)C)c23)cc1C(=O)NC(C)C` (some centres unmarked) [Example 59, 5-[(6-{1′-[4-({1-[2-(2,6-dioxopiperidin-3-yl)-1,3-dioxo-2,3-dihydro-1H-isoindol-4-yl]piperidin-4-yl}Methyl)benzoyl]-2-oxo-1-[(1s,3s)-3-(piperidin-1-yl)cyclobutyl]-1,2-dihydrospiro[indole-3,4′-piperidin]-6-yl}-3-(propan-2-yl)-3H-imidazo[4,5-c]pyridin-4-yl)amino]-4-fluoro-2-methyl-N-(propan-2-yl)benzamide] here?
**A.** 45 to 65%
